The test system of assay [1] is Male Sprague Dawley (SD) rats subjected to focal ischemia. The assay can be described thus: Focal ischemia with delayed tPA in rats: cerebral hemorrhage, infarct volume, brain swelling. It counts as in vivo, rat. The note with it: 24 hours post-stroke; tPA 5 mg/kg via femoral vein at 4.5 hours; progesterone i.p. at 2 hours. As for the experimental part: 2,3,5-tripheynltetrazolium (TTC)-stained brain sections are used for quantification of intracerebral hemorrhage with a spectrophotometric hemoglobin assay. Samples typically are collected 19.5 hours after injury. The brain tissue is homogenized in 2 ml 0.05 M tris buffered saline and tween (TBS-T) followed by a 30-minute centrifugation (12,000 rpm) and re-centrifugation for 15-minutes at 10,000 rpm. Then, 200 μl reagent (QuantiChrom™ Hemoglobin Assay Kit; BioAssay Systems) is added to a 50 μl supernatant. Optical density is measured at 405 nm with a spectrophotometer.
Brain edema/swelling are estimated by measuring the hemispheric areas of each 2-mm thick brain slices using Image J software (NIH, Bethesda, […]., USA), typically 24 hours after MCAO. Edema formation is calculated as hemispheric enlargement and expressed as a percentage of the normal areas in the contralateral hemisphere.
Male Sprague Dawley (SD) rats were subjected to focal ischemia, reperfused at 4.5 hours and then treated with tPA (5 mg/kg body weight; via femoral vein) at 4.5 hours or by combined progesterone (given by intraperitoneal injection at 2 hours) plus tPA (given at 4.5 hours). Rats were killed at 24 hours after ischemia, brains were perfused with saline, and coronal sections (2 mm thick) were stained with 2,3,5-triphenyltetrazolium chloride to quantify infarct volumes. […]

The test system of assay [2] is claudin-5. Put plainly: Claudin-5 in H/R-treated bEND3 cells (Western blot). It counts as cell-based, mouse. The conditions noted are these: tPA with H/R. As for the experimental part:
(§1) An immortalized mouse brain endothelial cell line (bEND 3) is purchased from American Type Culture Collection (ATCC, VA, USA) and cultured in Dulbecco's modified Eagle Medium (DMEM, ATCC) supplemented with 10% fetal bovine serum (ATCC). bEND 3 cells are seeded onto the luminal side of a filter (0.4 μm pore size; Corning, Lowell, MCA) coated with fibronectin (5 μg/ml) in 12-well plates for a transendothelial electrical resistance (TEER) test; and in 100-mm dishes for Western blot studies. Cell cultures are incubated at 37° C. in a 5%/95% mixture of CO2 and atmospheric air, and the medium is replaced every 3 days.
Peri-infarct cortical tissue is processed for protein analysis. Tissues are homogenized in T-per (Pierce, Rockford, Ill.) containing protease inhibitor cocktail (P8340, Sigma). Homogenates are centrifuged for 15 minutes at 13,000 g. […] Intensity of the bands is measured by an Image Gauge version. […]
(§2) To mimic ischemia-like conditions in vitro, immortalized mouse brain endothelial (bEND3) cells were exposed to 6 hours of hypoxia and 3 hours of reoxygeneation with or without the administration of tPA at a dose of 20 μ/ml. […] BBB integrity was evaluated by transendothelial membrane electrical resistance (TEER) measurement, MMP-9 activity, and the alteration of tight junction proteins following in vitro H/R injury.
(In general: A western blot detects proteins with antibodies after separation by electrophoresis.)

For assay [3], the system named is occludin. The assay can be described thus: Occludin in H/R-treated bEND3 cells (Western blot, immunofluorescence). It is filed as cell-based, mouse. The protocol: as §1
Peri-infarct cortical tissue is processed for protein analysis. Tissues are homogenized in T-per (Pierce, Rockford, Ill.) containing protease inhibitor cocktail (P8340, Sigma). Homogenates are centrifuged for 15 minutes at 13,000 g. 40 μg of total protein is separated on 8-12% gel and transferred onto polyvinylidene difluoride (Millipore, Mass., USA; PVDF) membranes at 300 mA for 2 hours. To measure the level of immunoglobulin, the membranes were incubated overnight at 4° C. with anti Rat IgG conjugated to biotin. bEND 3 cells are subjected to hypoxia/reperfusion for 9 hours and then lysed on ice in 100 μl of RIPA buffer. Cell lysated are boiled and then electrophoresed in 12% SDS-PAGE acrylamide gels, transferred onto PVDF membranes, and incubated for 1 hour in TBS-T (tris-buffered saline and 0.1% Tween 20) containing 5% bovine serum albumin (BSA). Membranes are then incubated overnight at 4° C. with primary antibodies against occludin (Invitrogen, Calif., USA; 1:1000), claudin-5 (Invitrogen; 1:1000), and ZO-1 (Invitrogen; 1:1000), washed in TBS-T, and incubated for 1 hour at room temperature with corresponding peroxidase-conjugated secondary antibodies (1:5000; KPL, Gaithersburg, Md.). All blots are stripped and re-incubated with β-actin antibodies (1:5000, Sigma) as a loading control. The peroxidase reaction is developed with an ECL-plus detection kit (Amersham BioScience, Piscataway, N.J.). Intensity of the bands is measured by an Image Gauge version. 4.0 program (FUJI Photo Film Co., Ltd).
The bEnd 3 cells grown to confluence on coverslips are subjected to the indicated treatments. […]
as §2

The test system of assay [4] is bEND3 cells. Put plainly: Transendothelial electrical resistance (TEER) after hypoxia/reperfusion (H/R). The note with it: tPA 20 μ/ml; 6 hours hypoxia, 3 hours reoxygenation. It counts as cell-based, mouse. As for the experimental part: as §1
The electrical resistance across the membrane are measured using an Millicell ERS Voltohmmeter (Millipore, Billerica, Mass.). The extracellular matrix-treated Transwell inserts are placed in 12-well plates containing culture medium and then used to measure the background resistance. The resistance measurements of these blank filters are then subtracted from those of filters with cells. Values are shown as Q. based on culture inserts.
To mimic ischemia-like conditions in vitro, immortalized mouse brain endothelial (bEND3) cells were exposed to 6 hours of hypoxia and 3 hours of reoxygeneation with or without the administration of tPA at a dose of 20 μ/ml. Reoxygenation was initiated by adding glucose (4.5 g/L)-containing phenol red-free DMEM for 3 hours at 37° C. in 95% air and 5% CO2. The cells were treated with various concentrations progesterone for 24 hours before hypoxia/reperfusion (H/R). BBB integrity was evaluated by transendothelial membrane electrical resistance (TEER) measurement, MMP-9 activity, and the alteration of tight junction proteins following in vitro H/R injury.

Turning to “tPA: serum protease acting specifically on serum plasminogen; also known as alteplase, available commercially as Activase”, in assay [1], the “Hemorrhage volume (hemoglobin in perfused brain)” value was “induced cerebral hemorrhage”. For the same substance, the “Expression of 23-kDa claudin-5 (Western blot)” value in assay [2] is given as “markedly decreased”. The “Detected levels of occludin (immunofluorescence)” value in assay [3] (bEND3 cells exposed to H/R and tPA for 9 hours, progesterone pretreatment) is “reduced”. In addition, the “Expression of occludin (Western blot)” value in assay [3] (bEND3 cells, tPA with H/R) was “markedly decreased”. Also, in assay [4], the “TEER under H/R conditions” value is reported as “significantly decreased”.

The record behind these values is US20140127185A1, “METHODS AND COMPOSITIONS USING NEUROPROTECTIVE STEROIDS AND THROMBOLYTIC AGENTS” (priority 2012, published 2014).
